“Also recorded” adds a separate entry of the source. Non-standard residues stand in square brackets, D forms with d. No end group written: not given here. Pip = O=C(O)[C@@H]1CCCCN1; Aib = CC(C)(N)C(=O)O
How the values were obtained:
[1] = test system: light-chain immunoglobulin-secreting human multiple myeloma cells; experiment: Inhibition of proliferation of light-chain immunoglobulin-secreting human multiple myeloma cells (bromodeoxyuridine incorporation); type: cell-based; conditions: inhibition of myeloma cell proliferation
Method: FIG. 3 is a table listing the EC50 for the inhibitory effects of PACAP38, PACAP27, VIP, and eight novel PACAP analogs on the proliferation of light-chain immunoglobulin-secreting myeloma cells. The light-chain immunoglobulin-secreting human multiple myeloma cells were cultured in RPMI 1640 medium supplemented with 10% non-inactivated fetal bovine serum and 0.05 mM 2-mercaptoethanol. The effects of PACAP38, PACAP27, VIP, and the eight novel PACAP analogs on myeloma cell proliferation were assessed by determining incorporation of bromodeoxyuridine into DNA during cell division. The number of myeloma cells approximately doubled during the 24-hour incubation period in the absence of treatment with PACAP-like peptides. Five different concentrations, ranging from 10^-13 M to 10^-5 M, were tested for PACAP38, PACAP27, VIP, and each of the eight novel PACAP analogs. The EC50 was calculated from the concentration response curve using the software package Prism (Graph Pad, San Diego, CA). Each value represents the mean of four-six determinations per experiment. The EC50 for PACAP38 is based on the average of four separate experiments, while the EC50 for PACAP27 and [Pip^3,Aib ^16,28,Ala^17,Lys^34,D-LysIPACAP 38 (SEQ ID NO: 4) is based on the average of two separate experiments.
FIG. 4 is a graph showing a representative concentration response curve from a single experiment on the inhibitory effects PACAP38 and six PACAP38 analogs on the proliferation of light-chain immunoglobulin-secreting human myeloma cells. Each value represents the mean plus/minus the standard error of four-six determinations. Note that replacing pipecolic acid in position 3 of the novel analogs with either nipecotic acid or isonipecotic acid results in an analog with more than four orders of magnitude lower inhibitory potency.
The effects of PACAP38, PACAP27, VIP, and PACAP analogs on myeloma cell proliferation were assessed by determining incorporation bromodeoxyuridine into DNA during cell division. […]

[2] = test system: rat renal proximal tubule epithelial cells; experiment: Reduction of cisplatin-induced apoptotic cell death of renal proximal tubule epithelial cells (histone-associated DNA fragmentation); type: cell-based; conditions: cisplatin 24 hours, comparable concentrations
[3] = test system: ischemia/reperfusion injury to the kidney; experiment: Serum creatinine after renal ischemia/reperfusion injury in mice; type: in vivo, male C57BL/6 mice; conditions: 20 micrograms i.p. 1, 24 and 48 h after start of reperfusion; 45 min renal artery clamping; 72 hours
Method: FIG. 6 is a graph showing the effects of PACAP38 and two novel PACAP analogs on serum creatinine levels in mice following ischemia/reperfusion injury to the kidney. The renal artery in male C57BL/6 mice was clamped bilaterally for 45 minutes in all mice except for the sham-operated mice. Twenty micrograms of PACAP38 or one of the PACAP analogs were given intraperitoneally 1 hour after the start of reperfusion and additional doses were given at 24 and 48 hours after the initial dose. The sham-operated group of mice was injected intraperitoneally with PACAP38 on the same schedule as the mice subjected to ischemia/reperfusion. The control group of mice was injected intraperitoneally with the same volume of saline as for the injections of PACAP38 on the same schedule. All of the mice were euthanized 24 hours after the final injection of saline, PACAP38 or one of the novel PACAP analogs. Each value represents the mean plus/minus the standard error of four determinations. **p<0.01 and *p<0.05 compared to the ischemia/reperfusion group treated with saline. I/R, ischemia/reperfusion; sham, sham-operated.

[4] = test system: human myeloma cell line (MM.1 R); experiment: Proliferation of dexamethasone-resistant myeloma cell line MM.1R (bromodeoxyuridine incorporation); type: cell-based; conditions: FIG. 9
Method: FIG. 9 is a graph showing the effects PACAP38, [Pip^3,Ala^14,17,Aib^16,28,Lys^34,D-Lys^38] PACAP38(SEQ ID NO: 6) and dexamethasone on the proliferation of light-chain immunoglobulin-secreting human myeloma cell line (MM.1 R) that was derived from a patient who was being treated for multiple myeloma with a dexamethasome-containing regimen. The light-chain immunoglobulin-secreting multiple myeloma cells were cultured in RPMI 1640 medium supplemented with 10% non-inactivated fetal bovine serum and 0.05mM 2-mercaptoethanol. The effects of dexamethasone, PACAP38 and the novel PACAP38 analog on cell proliferation were assessed by determining the incorporation of bromodeoxyuridine into DNA during cell division. Each value represents the mean plus/minus the standard error of four-six determination. The cell lines in FIGS. 8 and 9 were obtained from the same patient at different stages of the treatment (Greenstein et al., Exp Hematol 31 :271-282, 2003).

[5] = test system: human renal proximal tubule epithelial cells; experiment: Reduction of gentamicin-induced apoptotic cell death of human renal proximal tubule epithelial cells; type: cell-based; conditions: gentamicin 24 hours
Method: The inhibitory effects of PACAP38 and the novel PACAP analog on apoptotic cell death was assessed by the quantitative determination of cytoplasmic histone-associated DNA-fragmentation (mono- and oligonucleosomes) after exposure to gentamicin for 24 hours. […] Each value represents the mean plus/minus the standard deviation of four determinations. **p<0.01 and *p<0.05 compared to the group treated only with gentamicin.

Row | Substance | cytoprotective potency compared with PACAP38 [2] | reversal of the rise in serum creatinine caused by ischemia/reperfusion [3] | other results
1 | PACAP27 |  |  | potency compared with PACAP38 or the novel PACAP38 analogs [1]: significantly less potent
2 | [Pip^3,Aib^16,28,Ala^17,Lys^34,D-Lys^38]PACAP38 (HS[Pip]GIFTDSYSRYRK[Aib]AAVKKYLAAVL[Aib]KRYKQKVKN[dK]-NH2; N-terminus assumed; SMILES CC[C@H](C)[C@H](NC(=O)CNC(=O)[C@@H]1CCCCN1C(=O)[C@H](CO)NC(=O)[C@@H](N)Cc1c[nH]cn1)C(=O)N[C@@H](Cc1ccccc1)C(=O)N[C@H](C(=O)N[C@@H](CC(=O)O)C(=O)N[C@@H](CO)C(=O)N[C@@H](Cc1ccc(O)cc1)C(=O)N[C@@H](CO)C(=O)N[C@@H](CCCNC(=N)N)C(=O)N[C@@H](Cc1ccc(O)cc1)C(=O)N[C@@H](CCCNC(=N)N)C(=O)N[C@@H](CCCCN)C(=O)NC(C)(C)C(=O)N[C@@H](C)C(=O)N[C@@H](C)C(=O)N[C@H](C(=O)N[C@@H](CCCCN)C(=O)N[C@@H](CCCCN)C(=O)N[C@@H](Cc1ccc(O)cc1)C(=O)N[C@@H](CC(C)C)C(=O)N[C@@H](C)C(=O)N[C@@H](C)C(=O)N[C@H](C(=O)N[C@@H](CC(C)C)C(=O)NC(C)(C)C(=O)N[C@@H](CCCCN)C(=O)N[C@@H](CCCNC(=N)N)C(=O)N[C@@H](Cc1ccc(O)cc1)C(=O)N[C@@H](CCCCN)C(=O)N[C@@H](CCC(N)=O)C(=O)N[C@@H](CCCCN)C(=O)N[C@H](C(=O)N[C@@H](CCCCN)C(=O)N[C@@H](CC(N)=O)C(=O)N[C@H](CCCCN)C(N)=O)C(C)C)C(C)C)C(C)C)[C@@H](C)O) [SEQ ID NO:4] | either as effective or more effective than PACAP38 |  | 
3 | [Pip^3,Ala^14,17,Aib^16,28,Lys^34,D-Lys^38]PACAP38 (HS[Pip]GIFTDSYSRYAK[Aib]AAVKKYLAAVL[Aib]KRYKQKVKN[dK]-NH2; N-terminus assumed; SMILES CC[C@H](C)[C@H](NC(=O)CNC(=O)[C@@H]1CCCCN1C(=O)[C@H](CO)NC(=O)[C@@H](N)Cc1c[nH]cn1)C(=O)N[C@@H](Cc1ccccc1)C(=O)N[C@H](C(=O)N[C@@H](CC(=O)O)C(=O)N[C@@H](CO)C(=O)N[C@@H](Cc1ccc(O)cc1)C(=O)N[C@@H](CO)C(=O)N[C@@H](CCCNC(=N)N)C(=O)N[C@@H](Cc1ccc(O)cc1)C(=O)N[C@@H](C)C(=O)N[C@@H](CCCCN)C(=O)NC(C)(C)C(=O)N[C@@H](C)C(=O)N[C@@H](C)C(=O)N[C@H](C(=O)N[C@@H](CCCCN)C(=O)N[C@@H](CCCCN)C(=O)N[C@@H](Cc1ccc(O)cc1)C(=O)N[C@@H](CC(C)C)C(=O)N[C@@H](C)C(=O)N[C@@H](C)C(=O)N[C@H](C(=O)N[C@@H](CC(C)C)C(=O)NC(C)(C)C(=O)N[C@@H](CCCCN)C(=O)N[C@@H](CCCNC(=N)N)C(=O)N[C@@H](Cc1ccc(O)cc1)C(=O)N[C@@H](CCCCN)C(=O)N[C@@H](CCC(N)=O)C(=O)N[C@@H](CCCCN)C(=O)N[C@H](C(=O)N[C@@H](CCCCN)C(=O)N[C@@H](CC(N)=O)C(=O)N[C@H](CCCCN)C(N)=O)C(C)C)C(C)C)C(C)C)[C@@H](C)O) [SEQ ID NO:6] | either as effective or more effective than PACAP38 | almost completely reversed | sensitivity of cell proliferation [4]: still sensitive
4 | [Pip^3,Ala^15,17,Aib^16,28,Lys^34,D-Lys^38]PACAP38 (HS[Pip]GIFTDSYSRYRA[Aib]AAVKKYLAAVL[Aib]KRYKQKVKN[dK]-NH2; N-terminus assumed; SMILES CC[C@H](C)[C@H](NC(=O)CNC(=O)[C@@H]1CCCCN1C(=O)[C@H](CO)NC(=O)[C@@H](N)Cc1c[nH]cn1)C(=O)N[C@@H](Cc1ccccc1)C(=O)N[C@H](C(=O)N[C@@H](CC(=O)O)C(=O)N[C@@H](CO)C(=O)N[C@@H](Cc1ccc(O)cc1)C(=O)N[C@@H](CO)C(=O)N[C@@H](CCCNC(=N)N)C(=O)N[C@@H](Cc1ccc(O)cc1)C(=O)N[C@@H](CCCNC(=N)N)C(=O)N[C@@H](C)C(=O)NC(C)(C)C(=O)N[C@@H](C)C(=O)N[C@@H](C)C(=O)N[C@H](C(=O)N[C@@H](CCCCN)C(=O)N[C@@H](CCCCN)C(=O)N[C@@H](Cc1ccc(O)cc1)C(=O)N[C@@H](CC(C)C)C(=O)N[C@@H](C)C(=O)N[C@@H](C)C(=O)N[C@H](C(=O)N[C@@H](CC(C)C)C(=O)NC(C)(C)C(=O)N[C@@H](CCCCN)C(=O)N[C@@H](CCCNC(=N)N)C(=O)N[C@@H](Cc1ccc(O)cc1)C(=O)N[C@@H](CCCCN)C(=O)N[C@@H](CCC(N)=O)C(=O)N[C@@H](CCCCN)C(=O)N[C@H](C(=O)N[C@@H](CCCCN)C(=O)N[C@@H](CC(N)=O)C(=O)N[C@H](CCCCN)C(N)=O)C(C)C)C(C)C)C(C)C)[C@@H](C)O) [SEQ ID NO:5] | either as effective or more effective than PACAP38 | almost completely reversed | 
5 | [Pip^3]PACAP38 (HS[Pip]GIFTDSYSRYRKQMAVKKYLAAVLGKRYKQRVKNK-NH2; N-terminus assumed; SMILES CC[C@H](C)[C@H](NC(=O)CNC(=O)[C@@H]1CCCCN1C(=O)[C@H](CO)NC(=O)[C@@H](N)Cc1c[nH]cn1)C(=O)N[C@@H](Cc1ccccc1)C(=O)N[C@H](C(=O)N[C@@H](CC(=O)O)C(=O)N[C@@H](CO)C(=O)N[C@@H](Cc1ccc(O)cc1)C(=O)N[C@@H](CO)C(=O)N[C@@H](CCCNC(=N)N)C(=O)N[C@@H](Cc1ccc(O)cc1)C(=O)N[C@@H](CCCNC(=N)N)C(=O)N[C@@H](CCCCN)C(=O)N[C@@H](CCC(N)=O)C(=O)N[C@@H](CCSC)C(=O)N[C@@H](C)C(=O)N[C@H](C(=O)N[C@@H](CCCCN)C(=O)N[C@@H](CCCCN)C(=O)N[C@@H](Cc1ccc(O)cc1)C(=O)N[C@@H](CC(C)C)C(=O)N[C@@H](C)C(=O)N[C@@H](C)C(=O)N[C@H](C(=O)N[C@@H](CC(C)C)C(=O)NCC(=O)N[C@@H](CCCCN)C(=O)N[C@@H](CCCNC(=N)N)C(=O)N[C@@H](Cc1ccc(O)cc1)C(=O)N[C@@H](CCCCN)C(=O)N[C@@H](CCC(N)=O)C(=O)N[C@@H](CCCNC(=N)N)C(=O)N[C@H](C(=O)N[C@@H](CCCCN)C(=O)N[C@@H](CC(N)=O)C(=O)N[C@@H](CCCCN)C(N)=O)C(C)C)C(C)C)C(C)C)[C@@H](C)O) [SEQ ID NO:12] |  |  | cytoprotective potency, PACAP38 versus [Pip^3]PACAP38 [5]: less potent than PACAP38; reduction in gentamicin-induced apoptotic cell death ([5]; various concentrations): significant dose-dependent reduction; also recorded: dose-dependent inhibition

— patent publication US8916517B2, “Analogs of pituitary adenylate cyclase-activating polypeptide (PACAP) and methods for their use” (The Administrators of the Tulane Educational Fund, priority 2009, dated 2014)
